Test results published in ChEMBL document CHEMBL1156214, “Identification of GNE-477, a potent and efficacious dual PI3K/mTOR inhibitor” (Bioorg Med Chem Lett, 2010).
Converted amounts (≈) assume the structure as drawn. The source made the active and inactive calls. The rule behind the calls is not given here.

Columns and labels:
[1] = molecular target: Phosphatidylinositol 4,5-bisphosphate 3-kinase catalytic subunit alpha isoform (Homo sapiens, UniProt P42336)
Description: Inhibition of PI3Kalpha assessed as reduction in 3,4,5-inositoltriphosphate accumulation after 30 mins by fluorescence polarization assay

[2] = Antiproliferative activity against human MCF7.1 cells after 3 days by celltiter-glo luminescence assay; format: functional, cell-based; settings: MCF7.1, 72 h
[3] = Clearance in rat at 1 mg/kg, iv or 5 mg/kg, po; format: ADME, organism-based; settings: in vivo
[4] = molecular target: Serine/threonine-protein kinase mTOR (Homo sapiens, UniProt P42345); experiment: Inhibition of human recombinant mTOR assessed as reduction in GFP-4EBP1 phosphorylation after 30 mins by FRET assay
[5] = Hepatic clearance in rat liver microsomes; format: ADME, Microsome
[6] = Plasma protein binding in rat at 1 mg/kg, iv or 5 mg/kg, po; format: ADME, organism-based; settings: read-out: PPB (converted)
Rattus norvegicus = experiment: Unbound clearance in rat at 1 mg/kg, iv or 5 mg/kg, po; format: ADME, organism-based; settings: in vivo
[7] = Thermodynamic solubility at pH 6.5; format: physicochemical; settings: buffer
[8] = Oral bioavailability in Beagle dog at 2 mg/kg; format: ADME, organism-based, Canis lupus familiaris; settings: in vivo
[9] = Oral bioavailability in nu/nu mouse at 5 mg/kg; format: ADME, organism-based; settings: in vivo
[10] = Clearance in nu/nu mouse at 1 mg/kg, iv or 5 mg/kg, po; format: ADME, organism-based; settings: in vivo
[11] = Oral bioavailability in rat at 5 mg/kg; format: ADME, organism-based; settings: in vivo
PC-3 [12] = experiment: Antitumor activity against human PC3 cells xenografted in nu/nu mouse assessed as tumor growth inhibition at 5 mg/kg, po QD measured after 14 days relative to control; format: functional; parameters: scale not given: the % may be the effect or the level left
PC-3 [13] = experiment: Antitumor activity against human PC3 cells xenografted in nu/nu mouse assessed as tumor incidence at 1 mg/kg, po QD measured after 14 days; format: functional, organism-based; parameters: dose 1 mg/kg
PC-3 [14] = experiment: Antiproliferative activity against human PC3 cells after 3 days by celltiter-glo luminescence assay; format: functional, cell-based; settings: PC-3, 72 h
PC-3 [15] = experiment: Antitumor activity against human PC3 cells xenografted in nu/nu mouse assessed as tumor growth inhibition at 10 mg/kg, po QD measured after 14 days relative to control; format: functional; parameters: scale not given: the % may be the effect or the level left
Mus musculus = experiment: Toxicity in nu/nu mouse assessed as body weight loss at 1 to 20 mg/kg, po QD measured after 14 days; format: organism-based; parameters: dose 1-20 mg/kg, route oral; settings: in vivo, 336 h
PC-3 [16] = experiment: Antitumor activity against human PC3 cells xenografted in nu/nu mouse assessed as tumor growth inhibition at 1 mg/kg, po QD measured after 14 days relative to control; format: functional; parameters: scale not given: the % may be the effect or the level left
[17] = Clearance in Beagle dog at 1 mg/kg, iv or 2 mg/kg, po; format: ADME, organism-based, Canis lupus familiaris; settings: in vivo
PC-3 [18] = experiment: Antitumor activity against human PC3 cells xenografted in nu/nu mouse assessed as tumor growth inhibition at 20 mg/kg, po QD measured after 14 days relative to control; format: functional; parameters: scale not given: the % may be the effect or the level left
PC-3 [19] = experiment: Antitumor activity against human PC3 cells xenografted in nu/nu mouse assessed as tumor incidence at 10 mg/kg, po QD measured after 14 days; format: functional, organism-based; parameters: dose 10 mg/kg

Phosphatidylinositol 4,5-bisphosphate 3-kinase catalytic subunit alpha isoform, sequence (P42336 whole entry, canonical isoform): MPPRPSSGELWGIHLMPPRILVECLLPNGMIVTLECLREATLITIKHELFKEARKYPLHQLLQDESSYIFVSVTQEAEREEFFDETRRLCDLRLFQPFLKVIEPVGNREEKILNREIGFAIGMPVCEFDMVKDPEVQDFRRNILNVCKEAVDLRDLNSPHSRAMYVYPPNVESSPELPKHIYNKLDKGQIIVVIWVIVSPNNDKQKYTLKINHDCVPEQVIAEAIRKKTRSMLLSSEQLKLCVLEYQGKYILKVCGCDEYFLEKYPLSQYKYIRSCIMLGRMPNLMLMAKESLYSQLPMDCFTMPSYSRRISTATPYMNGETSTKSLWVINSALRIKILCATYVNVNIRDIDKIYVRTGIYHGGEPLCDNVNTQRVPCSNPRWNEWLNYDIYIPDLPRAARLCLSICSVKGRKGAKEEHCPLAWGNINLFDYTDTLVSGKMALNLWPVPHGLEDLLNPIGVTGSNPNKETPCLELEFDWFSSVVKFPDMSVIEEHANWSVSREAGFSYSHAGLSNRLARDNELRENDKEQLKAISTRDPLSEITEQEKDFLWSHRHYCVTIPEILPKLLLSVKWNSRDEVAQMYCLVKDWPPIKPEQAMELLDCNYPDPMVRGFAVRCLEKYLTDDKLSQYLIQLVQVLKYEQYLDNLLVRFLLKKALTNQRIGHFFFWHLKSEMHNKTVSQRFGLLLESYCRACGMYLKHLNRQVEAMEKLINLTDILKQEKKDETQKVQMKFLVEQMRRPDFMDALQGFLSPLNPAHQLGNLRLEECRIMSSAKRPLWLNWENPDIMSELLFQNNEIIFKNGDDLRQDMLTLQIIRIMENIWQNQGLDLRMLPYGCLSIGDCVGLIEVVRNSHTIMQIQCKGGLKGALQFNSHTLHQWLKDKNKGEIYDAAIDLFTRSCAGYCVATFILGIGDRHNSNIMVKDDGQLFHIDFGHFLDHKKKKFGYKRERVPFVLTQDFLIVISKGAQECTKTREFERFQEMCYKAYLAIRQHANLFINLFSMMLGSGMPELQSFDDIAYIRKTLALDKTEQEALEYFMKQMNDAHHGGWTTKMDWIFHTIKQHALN

SMILES	IC50 [1] [nM]	clearance [3] [mL/min/kg]	Ki [4] [nM]	CLhep predicted [5] [mL/min/kg]	fraction unbound [6]	Unbound clearance (Rattus norvegicus) [mL/min/kg]	solubility thermodynamic [7] [µg/mL]	EC50 [2] [nM]	also measured
Cc1c(-c2cccc(C(=O)N3CCN(C)CC3)c2)sc2c(N3CCOCC3)nc(-c3cnc(N)nc3)nc12	2	15	4	38	–	–	–	65	–
CN(Cc1cc2nc(-c3cnc(N)nc3)nc(N3CCOCC3)c2s1)S(C)(=O)=O	1	–	10	–	–	–	15 (≈ 34.4 µM)	170	–
CS(=O)(=O)N1CCN(Cc2cc3nc(-c4cnc(N)nc4)nc(N4CCOCC4)c3s2)CC1	–	–	29	16	0.48	50	62 (≈ 126 µM)	130	bioavailability [8]: 35%; bioavailability [9]: 81%; clearance [10]: 49 mL/min/kg
CS(=O)(=O)N1CCN(Cc2cc3nc(-c4cccc5[nH]ncc45)nc(N4CCOCC4)c3s2)CC1 [PICTILISIB]	–	–	–	–	–	–	–	720	–
CC(=O)N(C)Cc1cc2nc(-c3cnc(N)nc3)nc(N3CCOCC3)c2s1	5	50	50	2	0.53	94	770 (≈ 1930 µM)	190	–
Cc1c(-c2cccc(S(C)(=O)=O)c2)sc2c(N3CCOCC3)nc(-c3cnc(N)nc3)nc12	< 1	13	4	12	0.03	433	3 (≈ 6.22 µM)	68	bioavailability [11]: 4%
Nc1ncc(-c2nc(N3CCOCC3)c3sccc3n2)cn1	5	–	42	–	–	–	170 (≈ 541 µM)	430	–

The remaining molecules from weak to strong by Ki [4], led by results:

IC50 [1] [nM]	clearance [3] [mL/min/kg]	Ki [4] [nM]	CLhep predicted [5] [mL/min/kg]	fraction unbound [6]	Unbound clearance (Rattus norvegicus) [mL/min/kg]	solubility thermodynamic [7] [µg/mL]	SMILES	EC50 [2] [nM]	also measured
7	–	59	–	–	–	1100 (≈ 2960 µM)	CC(C)(N)c1cc2nc(-c3cnc(N)nc3)nc(N3CCOCC3)c2s1	290	–
3	21	30	20	0.49	43	–	CC(=O)N(C)Cc1sc2c(N3CCOCC3)nc(-c3cnc(N)nc3)nc2c1C	164	–
–	13	21	15	0.25	52	–	Cc1c(CN2CCN(S(C)(=O)=O)CC2)sc2c(N3CCOCC3)nc(-c3cnc(N)nc3)nc12	143	bioavailability [8]: 90%; Activity (PC-3 [12]): 43%; Activity (PC-3 [13]): inactive; bioavailability [11]: 52%; EC50 (PC-3 [14]): 174 nM; bioavailability [9]: 98%; clearance [10]: 15 mL/min/kg; Activity (PC-3 [15]): 60%; Activity (Mus musculus): < 10%; Activity (PC-3 [16]): 33%; clearance [17]: 5 mL/min/kg; Activity (PC-3 [18]): 86%; Activity (PC-3 [19]): inactive
1	52	10	20	–	–	–	CN1CCN(C(=O)c2cccc(-c3cc4nc(-c5cnc(N)nc5)nc(N5CCOCC5)c4s3)c2)CC1	78	–
< 1	56	5	7	0.07	800	1 (≈ 2.13 µM)	CS(=O)(=O)c1cccc(-c2cc3nc(-c4cnc(N)nc4)nc(N4CCOCC4)c3s2)c1	40	bioavailability [11]: 3%
